Here are results for 1 compound from patent US11129801B2 (SigmaThera SAS, priority 2016, dated 2021).

The subject of assay [1] is sigma-1R. As to conditions: read-out: IC50 / affinity for sigma-1R; cited from earlier work.
For assay [2], the system named is hippocampal lipid peroxidation. Put plainly: Hippocampal lipid peroxidation (LPO) measurement, Aβ25-35 mouse model. It is filed as in vivo. As to conditions: for hippocampal LPO levels: 1 mg/kg. The method, then: (§1) For each of Experiments 1-4, on day 7, all animals were tested for the spontaneous alternation performance in the Y-maze test, an index of spatial working memory. On day 8 and 9, the contextual long-term memory of the animals was assessed using the step-through type passive avoidance procedure. On day 9, immediately after the retention session, animals were sacrificed by decapitation and the hippocampus and cortex dissected out. Lipid peroxidation was analyzed in the hippocampus, whereas neuroinflammation, apoptosis, amyloid burden and hyperphosphorylation of tau protein were analyzed in cortex.
Sacrifice: At the end of the passive avoidance retention session, on day 9, the animals were sacrificed by decapitation. The hippocampi and frontal cortex were dissected out and kept at −80° C. until the measurement of lipid peroxidation and other markers.
Lipid peroxidation measurement: At day 24, 6 hippocampi from each group were used. After thawing, homogenates were homogenized in cold methanol ( 1/10 w/v), centrifuged at 1,000 g during 5 min and the supernatant placed in Eppendorf tube. The reaction volume of each homogenate was added to FeSO4 1 mM, H2SO4 0.25 M, xylenol orange 1 mM and incubated for 30 min at room temperature. After reading the absorbance at 580 nm (A5801), 10 μl of cumene hydroperoxyde (CHP) 1 mM was added to the sample and incubated for 30 min at room temperature, to determine the maximal oxidation level. The absorbance was measured at 580 nm (A5802). The level of lipid peroxidation was determined as CHP equivalents according to: CHPE=A5801/A5802×[CHP (nmol)] and expressed as CHP equivalents per wet weight of tissue and as percentage of control group data (Veh-treated Sc.Aβ-administered mice).

The test system of assay [3] is sigma-1 receptor / BiP complex. As to the kind of experiment: Dissociation of BiP from sigma-1 receptor in CHO cells. It is filed as cell-based. The note with it: 1 μM and 10 μM, 30 min. As to the method: CHO cells were grown in a 6-well plates and treated with the compounds in culture medium at 37° C. for 30 min at 1 μM and 10 μM final concentration. The reaction was stopped by medium removal and adding 3 mL PBS at 37° C. CHO cells were harvested and suspended in 50 mM HEPES (pH7.4) followed by cross-linking with 50 μg/ml of dithio (bis) succinimidyl propionate (Thermo Fisher Scientific, Waltham, Mass.) for 30 min at 4° C. The reaction was stopped by adding Tris-HCl (pH 8.8, final 50 mM). Fifteen minutes after incubation on ice, cells were lysed with RIPA buffer [50 mM Tris (pH7.4), 150 mM NaCl, 1% Triton X-100, 0.3% sodium deoxycholate, 0.1% SDS, protease inhibitor cocktail (Roche Complete)]. After centrifugation at 12,000 g, 1 min, the supernatant was incubated overnight at 4° C. with Sig-1R antibody (Abcam). The cell lysate was incubated with Sepharose protein-A (Invitrogen) for 90 min. After centrifugation at 12,000 g, 1 min, the supernatant was discarded and the pellet was washed in 0.5 mL RIPA buffer. After a second centrifugation at 12,000 g, 20 min, the supernatant was discarded and the pellet was washed in 0.5 mL 2× Sample buffer/bMCE buffer. Following a third centrifugation at 12,000 g, 1 min, the supernatant was analysed by ELISA assay, according to the manufacturer's protocol (USCNK #SEC343Mu).

Assay [4] relates to Bax/Bcl-2. Put plainly: ELISA of cortical Bax/Bcl-2 ratio, Aβ25-35 mouse model. It is filed as in vivo. As to conditions: Experiment 2, post-treatment, 1 mg/kg. The method, then:
(§2) In Experiment 2, twelve mice per experimental group were administered Sc.Aβ or Aβ25-35-amyloid peptide on day 0 by i.c.v. injection. […] Animals were tested at day 7 and later.
as §1
(§3) Enzyme-linked immunosorbant assay (ELISA) assays: Contents in GFAP, Caspase 12, Amyloid-beta 1-40, Amyloid-beta 1-42, Total Tau, and pTau on Ser199 were analyzed by using commercial ELISA assay kit. • GFAP: Supplier: USCNK #Ref: SEA068Mu • Total Tau: Supplier: Novex #Ref: KMB7011 • pTau (S199): Supplier: Novex #Ref: KMB7041 • Amyloid beta 1-40: Supplier: Novex #Ref: KMB3481 • Amyloid beta 1-42: Supplier: Novex #Ref: KMB3441 • Caspase-12: Supplier: LSBio #Ref: LS-F11023 • BAX: Supplier: Euromedex#Ref: SEB343Mu • BCL2: Supplier: Euromedex #Ref: SEA778Mu […]
In general terms: In an ELISA, binding on a coated surface is turned into a signal by an enzyme label.

The subject of assay [5] is caspase 12. Put plainly: ELISA of cortical caspase 12, Aβ25-35 mouse model. It is filed as in vivo. The note with it: Experiment 2, post-treatment, 1 mg/kg. As to the method: as §2, §1, §3

With `CCC(C/C=C/c1ccccc1)(c1ccccc1)N(C)CC1CC1` (single isomer, unassigned; (+)) [igmesine, (+)-(E)-N-(cyclopropylmethyl)-N-methyl-3,6-diphenylhex-5-en-3-amine], in assay [1], the IC50 is 39 ± 8 nM. Moreover, the “hippocampal LPO levels” value in assay [2] (Experiment 1, pre-treatment) was “fully normalized”; in assay [2] (Experiment 2, post-treatment), “fully normalized”. In assay [2] (Experiment 3, igmesine 0.1 mg/kg + donepezil […]), the “synergy on hippocampal LPO with donepezil” value is on record as “did synergize”. In addition, the “synergy on hippocampal LPO with memantine” value in assay [2] (Experiment 3, igmesine 0.1 mg/kg + memantine) is “synergy was not present”. In addition, the “dissociation of BiP from sigma-1 receptor” value in assay [3] is “produced the dissociation of BiP from sigma-1 receptor in a dose-dependent manner”. Also, the “cortical Bax/Bcl-2 ratio elevation” value in assay [4] is “fully normalized”. Moreover, the “cortical caspase 12 elevation” value in assay [5] is “fully normalized”.
